SMILES strings stand for the structures.

In the first data set the target is T1, Tubulin isolated from porcine brain tissue (Sus scrofa, UniProt P02550+P02554).
T1 construct: purchased Cytoskeleton (Denver, CO), via Beyotime, China; host or cells: porcine brain tissue
T1 sequence (P02554 whole entry): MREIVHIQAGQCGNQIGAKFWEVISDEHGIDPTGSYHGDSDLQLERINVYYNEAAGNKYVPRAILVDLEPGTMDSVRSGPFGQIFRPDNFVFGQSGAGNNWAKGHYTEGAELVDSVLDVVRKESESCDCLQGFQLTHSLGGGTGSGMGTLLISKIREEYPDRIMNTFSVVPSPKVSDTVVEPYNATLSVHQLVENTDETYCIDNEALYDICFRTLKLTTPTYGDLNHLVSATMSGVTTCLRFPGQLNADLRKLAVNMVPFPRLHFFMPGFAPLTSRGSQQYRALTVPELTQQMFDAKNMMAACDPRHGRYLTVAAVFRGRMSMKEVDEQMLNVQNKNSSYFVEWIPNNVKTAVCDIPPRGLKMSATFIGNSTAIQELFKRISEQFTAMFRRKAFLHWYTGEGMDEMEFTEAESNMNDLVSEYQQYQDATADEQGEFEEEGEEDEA
T1 sequence (P02550 whole entry): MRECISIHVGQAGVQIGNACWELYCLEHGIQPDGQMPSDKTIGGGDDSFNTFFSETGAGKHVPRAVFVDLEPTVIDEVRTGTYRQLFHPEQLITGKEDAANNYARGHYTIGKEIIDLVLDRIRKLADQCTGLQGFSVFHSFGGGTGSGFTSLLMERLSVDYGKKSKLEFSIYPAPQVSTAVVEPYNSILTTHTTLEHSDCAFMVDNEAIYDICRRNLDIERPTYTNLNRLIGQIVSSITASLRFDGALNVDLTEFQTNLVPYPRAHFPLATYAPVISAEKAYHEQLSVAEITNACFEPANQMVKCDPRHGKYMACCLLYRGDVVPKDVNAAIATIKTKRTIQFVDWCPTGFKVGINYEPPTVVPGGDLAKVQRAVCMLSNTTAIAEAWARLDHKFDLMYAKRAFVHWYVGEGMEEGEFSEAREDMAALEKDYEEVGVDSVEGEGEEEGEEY
The data set can be described thus: Tubulin polymerisation assay. The following applies: triplicate, mean ± SD; read-out: Tubulin (tubulin inhibitory polymerisation IC50). Type of data set: biochemical. On the procedure: Tubulin polymerisation was determined with the tubulin polymerisation assay kit (Cytoskeleton, Denver, CO which was purchased from Cytoskeleton, Beyotime, China. Tubulin isolated from porcine brain tissue was used in this commercial kit.) It is based on the principal that light is scattered by microtubules to an extent that is proportional to the concentration of the microtubule polymer. Compounds that interact with tubulin will alter the polymerisation of tubulin, and this can be detected using a spectrophotometer. Tubulin polymerisation dynamics was monitored through measuring the change of absorbance at 340 nm every 2 min for 30 min at 37 °C on a spectrophotometer.
On to `O=C(/C=C/c1cn(Cc2ccccc2)c2ccccc12)c1ccc(Cl)cc1` [Compound 25d, (E)-3–(1-benzyl-1H-indol-3-yl)-1–(4-chlorophenyl)prop-2-en-1-one], for which the IC50 is > 100 µM.

`O=C(/C=C/c1cn(S(=O)(=O)c2ccccc2)c2ccccc12)c1ccc(Cl)cc1` [Compound 25e, (E)-1–(4-chlorophenyl)-3–(1-(phenylsulfonyl)-1H-indol-3-yl)prop-2-en-1-one]: the IC50 is > 100 µM.

Take `COc1ccc(C(=O)/C=C/c2cn(C)c3ccccc23)cc1` [Compound 26a, (E)-1–(4-Methoxyphenyl)-3–(1-methyl-1H-indol-3-yl)prop-2-en-1-one]: the IC50 came out at 85.7 ± 2.5 µM.

As to `CCn1cc(/C=C/C(=O)c2ccc(OC)cc2)c2ccccc21` [Compound 26b, (E)-3–(1-Ethyl-1H-indol-3-yl)-1–(4-methoxyphenyl)prop-2-en-1-one], the half-maximal inhibitory concentration (IC50) came to 78.8 ± 1.3 µM.

For `CCCn1cc(/C=C/C(=O)c2ccc(OC)cc2)c2ccccc21` [Compound 26c, (E)-1–(4-Methoxyphenyl)-3–(1-propyl-1H-indol-3-yl)prop-2-en-1-one], the IC50 turned out to be 72.5 ± 1.7 µM.

For the compound `COc1ccc(C(=O)/C=C/c2cn(Cc3ccccc3)c3ccccc23)cc1` [Compound 26d, (E)-3–(1-Benzyl-1H-indol-3-yl)-1–(4-methoxyphenyl)prop-2-en-1-one], the IC50 was determined as 75.8 ± 2.6 µM.

On to `COc1ccc(C(=O)/C=C/c2cn(S(=O)(=O)c3ccccc3)c3ccccc23)cc1` [Compound 26e, (E)-1–(4-Methoxyphenyl)-3–(1-(phenylsulfonyl)-1H-indol-3-yl)prop-2-en-1-one], for which the IC50 was determined as 58.4 ± 1.7 µM.

`COc1cccc(C(=O)/C=C/c2cn(C)c3ccccc23)c1` [Compound 27a, (E)-1–(3-Methoxyphenyl)-3–(1-methyl-1H-indol-3-yl)prop-2-en-1-one]: the IC50 is > 100 µM.

In the case of `CCn1cc(/C=C/C(=O)c2cccc(OC)c2)c2ccccc21` [Compound 27b, (E)-3–(1-Ethyl-1H-indol-3-yl)-1–(3-methoxyphenyl)prop-2-en-1-one], the IC50 was > 100 µM.

Take `COc1cccc(C(=O)/C=C/c2cn(Cc3ccccc3)c3ccccc23)c1` [Compound 27d, (E)-3–(1-Benzyl-1H-indol-3-yl)-1–(3-methoxyphenyl)prop-2-en-1-one]: the IC50 is > 100 µM.

Regarding `COc1cccc(C(=O)/C=C/c2cn(S(=O)(=O)c3ccccc3)c3ccccc23)c1` [Compound 27e, (E)-1–(3-Methoxyphenyl)-3–(1-(phenylsulfonyl)-1H-indol-3-yl)prop-2-en-1-one], the IC50 worked out at 87.2 ± 1.4 µM.

`Cn1cc(/C=C/C(=O)c2ccc(C(F)(F)F)cc2)c2ccccc21` [Compound 28a, (E)-3–(1-Methyl-1H-indol-3-yl)-1–(4-(trifluoromethyl)phenyl)prop-2-en-1-one]: the IC50 is > 100 µM.

For `CCn1cc(/C=C/C(=O)c2ccc(C(F)(F)F)cc2)c2ccccc21` [Compound 28b, (E)-3–(1-ethyl-1H-indol-3-yl)-1–(4-(trifluoromethyl)phenyl)prop-2-en-1-one], the IC50 was > 100 µM.

On to `CCCn1cc(/C=C/C(=O)c2ccc(C(F)(F)F)cc2)c2ccccc21` [Compound 28c, (E)-3–(1-Propyl-1H-indol-3-yl)-1–(4-(trifluoromethyl)phenyl)prop-2-en-1-one], for which the IC50 was 26.8 ± 4.6 µM.

Consider `O=C(/C=C/c1cn(Cc2ccccc2)c2ccccc12)c1ccc(C(F)(F)F)cc1` [Compound 28d, (E)-3–(1-Benzyl-1H-indol-3-yl)-1–(4-(trifluoromethyl)phenyl)prop-2-en-1-one], for which the IC50 was > 100 µM.

Turning to `CCn1cc(/C=C/C(=O)c2cc(OC)c(OC)c(OC)c2)c2ccccc21` [Compound 29b, (E)-3–(1-Ethyl-1H-indol-3-yl)-1–(3,4,5-trimethoxyphenyl)prop-2-en-1-one], the IC50 was > 100 µM.

In the case of `CCCn1cc(/C=C/C(=O)c2cc(OC)c(OC)c(OC)c2)c2ccccc21` [Compound 29c, (E)-3–(1-Propyl-1H-indol-3-yl)-1–(3,4,5-trimethoxyphenyl)prop-2-en-1-one], the IC50 was > 100 µM.

A further data set concerns transgenic zebrafish (FLK-1:EGFP). The data set can be described thus: Zebrafish angiogenesis assay (ISVs). Type of data set: in vivo. To be noted: Danio rerio, transgenic zebrafish; triplicate, mean ± SD; read-out: Zebrafish (antiangiogenic activity IC50). On the procedure:
The transgenic flk: enhanced GFP zebrafish embryos were generated by pair-wise mating, collected and sorted into the 6-well plate (n = 30 per well) with 1 ml of aquaculture water (0.2 g/L of Instant Ocean Salt in distilled water) and raised at 28 °C. Then the embryos staged at 12 h post fertilisation (hpf) were treated with the indicated concentrations of compounds which were added into embryo water. About 30 embryos were screened for each concentration gradient. At 30hpf, the treated embryos were anaesthetised with 0.02% tricaine in embryo water and photographed. The numbers of ISVs were recorded under confocal microscopy. Results were obtained from three independent determinations and presented as mean ± SD.[38]
For `COc1ccc(C(=O)/C=C/c2cn(S(=O)(=O)c3ccccc3)c3ccccc23)cc1` [Compound 26e, (E)-1–(4-Methoxyphenyl)-3–(1-(phenylsulfonyl)-1H-indol-3-yl)prop-2-en-1-one], the IC50 is 35.6 ± 3.2 µM.

Test system in another data set: not given
Assay: not given
Settings: not given
For the compound `O=C(/C=C/c1cn(Cc2ccccc2)c2ccccc12)c1ccc(Cl)cc1` [Compound 25d, (E)-3–(1-benzyl-1H-indol-3-yl)-1–(4-chlorophenyl)prop-2-en-1-one], the melting point fell in the range of 163 to 165 °C.

On to `O=C(/C=C/c1cn(S(=O)(=O)c2ccccc2)c2ccccc12)c1ccc(Cl)cc1` [Compound 25e, (E)-1–(4-chlorophenyl)-3–(1-(phenylsulfonyl)-1H-indol-3-yl)prop-2-en-1-one], for which the melting point is 162 to 165 °C.

Consider `COc1ccc(C(=O)/C=C/c2cn(C)c3ccccc23)cc1` [Compound 26a, (E)-1–(4-Methoxyphenyl)-3–(1-methyl-1H-indol-3-yl)prop-2-en-1-one], for which the melting point was in the range of 160 to 162 °C.

In the case of `CCn1cc(/C=C/C(=O)c2ccc(OC)cc2)c2ccccc21` [Compound 26b, (E)-3–(1-Ethyl-1H-indol-3-yl)-1–(4-methoxyphenyl)prop-2-en-1-one], the melting point lay within 165 to 168 °C.

In the case of `CCCn1cc(/C=C/C(=O)c2ccc(OC)cc2)c2ccccc21` [Compound 26c, (E)-1–(4-Methoxyphenyl)-3–(1-propyl-1H-indol-3-yl)prop-2-en-1-one], the melting point lay in the range of 161 to 162 °C.

The compound `COc1ccc(C(=O)/C=C/c2cn(Cc3ccccc3)c3ccccc23)cc1` [Compound 26d, (E)-3–(1-Benzyl-1H-indol-3-yl)-1–(4-methoxyphenyl)prop-2-en-1-one] gave a melting point of 161 to 163 °C.

`COc1ccc(C(=O)/C=C/c2cn(S(=O)(=O)c3ccccc3)c3ccccc23)cc1` [Compound 26e, (E)-1–(4-Methoxyphenyl)-3–(1-(phenylsulfonyl)-1H-indol-3-yl)prop-2-en-1-one] returned a melting point of 165 to 168 °C.

For `COc1cccc(C(=O)/C=C/c2cn(C)c3ccccc23)c1` [Compound 27a, (E)-1–(3-Methoxyphenyl)-3–(1-methyl-1H-indol-3-yl)prop-2-en-1-one], the melting point was in the range of 161 to 162 °C.

`CCn1cc(/C=C/C(=O)c2cccc(OC)c2)c2ccccc21` [Compound 27b, (E)-3–(1-Ethyl-1H-indol-3-yl)-1–(3-methoxyphenyl)prop-2-en-1-one] yielded a melting point of 165 to 166 °C.

In turn, `COc1cccc(C(=O)/C=C/c2cn(Cc3ccccc3)c3ccccc23)c1` [Compound 27d, (E)-3–(1-Benzyl-1H-indol-3-yl)-1–(3-methoxyphenyl)prop-2-en-1-one] displayed a melting point of 161 to 163 °C.

The compound `COc1cccc(C(=O)/C=C/c2cn(S(=O)(=O)c3ccccc3)c3ccccc23)c1` [Compound 27e, (E)-1–(3-Methoxyphenyl)-3–(1-(phenylsulfonyl)-1H-indol-3-yl)prop-2-en-1-one] registered a melting point of 167 to 168 °C.

Consider `Cn1cc(/C=C/C(=O)c2ccc(C(F)(F)F)cc2)c2ccccc21` [Compound 28a, (E)-3–(1-Methyl-1H-indol-3-yl)-1–(4-(trifluoromethyl)phenyl)prop-2-en-1-one], for which the melting point lay within 160 to 162 °C.

In turn, `CCn1cc(/C=C/C(=O)c2ccc(C(F)(F)F)cc2)c2ccccc21` [Compound 28b, (E)-3–(1-ethyl-1H-indol-3-yl)-1–(4-(trifluoromethyl)phenyl)prop-2-en-1-one] had a melting point of 165 to 168 °C.

Take `CCCn1cc(/C=C/C(=O)c2ccc(C(F)(F)F)cc2)c2ccccc21` [Compound 28c, (E)-3–(1-Propyl-1H-indol-3-yl)-1–(4-(trifluoromethyl)phenyl)prop-2-en-1-one]: the melting point was in the range of 161 to 162 °C.

In turn, `O=C(/C=C/c1cn(Cc2ccccc2)c2ccccc12)c1ccc(C(F)(F)F)cc1` [Compound 28d, (E)-3–(1-Benzyl-1H-indol-3-yl)-1–(4-(trifluoromethyl)phenyl)prop-2-en-1-one] registered a melting point of 160 to 163 °C.

As to `CCn1cc(/C=C/C(=O)c2cc(OC)c(OC)c(OC)c2)c2ccccc21` [Compound 29b, (E)-3–(1-Ethyl-1H-indol-3-yl)-1–(3,4,5-trimethoxyphenyl)prop-2-en-1-one], the melting point is 155 to 158 °C.

Consider `CCCn1cc(/C=C/C(=O)c2cc(OC)c(OC)c(OC)c2)c2ccccc21` [Compound 29c, (E)-3–(1-Propyl-1H-indol-3-yl)-1–(3,4,5-trimethoxyphenyl)prop-2-en-1-one], for which the melting point was in the range of 162 to 164 °C.

For the origin of these results see paper PMC8820799, “Angiogenesis and anti-leukaemia activity of novel indole derivatives as potent colchicine binding site inhibitors” (Journal of Enzyme Inhibition and Medicinal Chemistry, 2022).
